Measured values from patent US11311609B2, “Regulating chimeric antigen receptors” (DANA-FARBER CANCER INSTITUTE, INC., priority 2017, dated 2022).

Key:
Type in all cases: cell-based
CD19-CAR-dTAG = target: T1, CD19-CAR-dTAG (Homo sapiens, UniProt P62942+Q96SW2, F37V/H95N/M50V/V99I); assay: Immunoblot of CD19-CAR-dTAG degradation in Jurkat T-cells
T1 construct: HA; expressed in transfected cells; host or cells: Jurkat T-cells, lentiviral transduction, blasticidin selection
Method: FIG. 14A and FIG. 14B are immunoblots of cells treated with heterobifunctional compounds described in the present invention.
FIG. 15A and FIG. 15B are immunoblots of cells treated with bi-functional molecules described in the present invention.
FIG. 16 is an immunoblot of cells treated with heterobifunctional compounds described in the present invention.
At 4 and 12 hours, the dFKBP7 was washed out of the Jurkat cells. At each indicated timepoint, Jurkat cells were harvest to monitor CD19-CAR-dTAG expression levels via immunoblot analysis. FIG. 17B is the resulting immunoblot from the experimental design in FIG. 17A.
Jurkat T-cells were transduced with lentivirus expressing CD19-CAR-dTAG. Cells were selected with blasticidin and expanded.
Jurkat T-cells were engineered to express CD19-CAR-dTAG. Cells were treated with the indicated dose of dFKBP7 or dFKBP13 for 4 hours before lysates were prepared for western immunoblot analysis.
Jurkat T-cells were engineered to express CD19-CAR-dTAG. Cells were treated with 250 nM dFKBP7 or dFKBP13 for the indicated time before lysates were prepared for immunoblot analysis.
At 4 and 12 hours, the dFKBP7 was washed out of the Jurkat cells. At each indicated timepoint, Jurkat cells were harvest to monitor CD19-CAR-dTAG expression levels via immunoblot analysis.

FKBP*-KRASG12V = assay: Immunoblot of FKBP*-KRASG12V degradation in NIH3T3 cells; conditions: NIH3T3 cells; 500 nM, indicated time
Method: (§1) FIG. 19 is an immunoblot of NIH3T3 cells expressing KRASG12V allele fused to FKBP* in the N-terminus or C-terminus. Cells were treated with 500 nM dFKBP7 for the indicated time. Cells were harvested and immunoblotted to measure degradation of FKBP*-KRASG12V and downstream surrogates of KRAS signaling (e.g. pMEK and pAKT).
(§2) Cells were harvested and immunoblotted to measure degradation of FKBP*-KRASG12V and downstream surrogates of KRAS signaling (e.g. pMEK and pAKT).
as §2, §2
Cells were treated with 500 nM dFKBP7 for the indicated time. Cells were harvested and immunoblotted to measure degradation of FKBP*-KRAS and downstream surrogates of KRAS signaling (e.g. pMEK and pAKT).
(§3) Cells were harvested and immunoblotted to measure degradation of FKBP*-KRAS and downstream surrogates of KRAS signaling (e.g. pMEK and pAKT).
as §3
To evaluate the kinetic control of targeted degradation of dTAG-KRAS, dFKBP13 was administered by increased duration. […]

[1] = tested on: KRAS signaling (pMEK and pAKT); assay: Immunoblot of downstream surrogates of KRAS signaling in NIH3T3 cells expressing FKBP*-KRASG12V; conditions: NIH3T3 cells, N-terminal dTAG-KRAS; 500 nM, indicated time
Method: as §1
(§4) FIG. 20 is an immunoblot of NIH3T3 cells expressing FKBP* fused to the N-terminus of KRASG12V treated with 1 uM of the indicated dFKBP heterobifunctional compounds for 24 hours. Cells were harvested and immunoblotted to measure degradation of FKBP*-KRASG12V and downstream surrogates of KRAS signaling (e.g. pMEK and pAKT).
as §4, with “21” for “20”, “with” for “with 1 uM of”, “concentrations of dFKBP13” for “dFKBP heterobifunctional compounds”
FIG. 22 is an immunoblot of NIH3T3 cells expressing FKBP* fused to the N-terminus of KRASG12V treated with 1 uM dFKBP13 for the indicated time. Cells were harvested and immunoblotted to measure degradation of FKBP*-KRASG12V and downstream surrogates of KRAS signaling (e.g. pMEK and pAKT).
Cells were treated with 500 nM dFKBP7 for the indicated time. […]

FKBP* fused to Nluc = assay: Nluc/Fluc luciferase signal ratio assay of FKBP* degradation in 293FT cells; conditions: wild type or CRBN-/- 293FT cells; indicated concentrations, 4 hours
Method: FIG. 7A and FIG. 7B are graphs measuring the activity of a panel of dFKBP heterobifunctional compounds in cells expressing FKBP* fused to Nluc. Degradation of FKBP* is measured as a signal ratio (Nluc/Fluc) between NANOluc and firefly luciferase from the same multicistronic transcript in wild type (FIG. 7A) or CRBN −/− (FIG. 7B) 293FT cells treated with indicated concentrations of dFKBPs for 4 hours. A decrease in the signal ratio indicates FKBP* (Nluc) degradation. Additional experimental details are provided in Example 4.
In an effort to identify potent and selective dFKPB heterobifunctional compounds, high throughput measurements of targeted FKBP* degradation were measured by surrogate levels of luciferase. Here, FKBP* is exogenously expressed as a multicistronic transcript with two types of luciferase: nano luciferase (NLuc) and firefly luciferase (FLuc) that allow for cell normalized quantification of FKBP* protein levels. Degradation of FKBP* is measured as a signal ratio (Nluc/Fluc) in wild type (FIG. 7A) or CRBN −/− (FIG. 7B) 293FT cells treated with indicated concentrations of dFKBPs for 4 hours.

T1 sequence (P62942 with tags, fused parts or gaps F37V/M50V/H95N/V99I limits assumed): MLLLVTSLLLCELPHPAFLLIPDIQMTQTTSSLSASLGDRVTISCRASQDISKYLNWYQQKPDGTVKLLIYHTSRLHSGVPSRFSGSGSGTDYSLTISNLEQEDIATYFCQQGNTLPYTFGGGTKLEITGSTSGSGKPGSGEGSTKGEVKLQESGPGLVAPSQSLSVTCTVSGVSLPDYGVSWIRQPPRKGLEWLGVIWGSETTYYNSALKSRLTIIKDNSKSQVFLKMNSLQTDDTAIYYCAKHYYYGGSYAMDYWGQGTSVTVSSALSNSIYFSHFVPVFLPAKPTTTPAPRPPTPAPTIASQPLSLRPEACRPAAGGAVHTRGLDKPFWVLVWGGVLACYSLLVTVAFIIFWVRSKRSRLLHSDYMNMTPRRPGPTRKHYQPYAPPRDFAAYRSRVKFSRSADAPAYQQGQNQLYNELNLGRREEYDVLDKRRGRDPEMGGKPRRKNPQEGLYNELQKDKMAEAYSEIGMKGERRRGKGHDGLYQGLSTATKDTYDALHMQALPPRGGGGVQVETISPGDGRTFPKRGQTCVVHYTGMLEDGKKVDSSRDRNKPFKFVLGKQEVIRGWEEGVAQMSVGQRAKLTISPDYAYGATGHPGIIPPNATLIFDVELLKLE
T1 sequence (Q96SW2 whole entry): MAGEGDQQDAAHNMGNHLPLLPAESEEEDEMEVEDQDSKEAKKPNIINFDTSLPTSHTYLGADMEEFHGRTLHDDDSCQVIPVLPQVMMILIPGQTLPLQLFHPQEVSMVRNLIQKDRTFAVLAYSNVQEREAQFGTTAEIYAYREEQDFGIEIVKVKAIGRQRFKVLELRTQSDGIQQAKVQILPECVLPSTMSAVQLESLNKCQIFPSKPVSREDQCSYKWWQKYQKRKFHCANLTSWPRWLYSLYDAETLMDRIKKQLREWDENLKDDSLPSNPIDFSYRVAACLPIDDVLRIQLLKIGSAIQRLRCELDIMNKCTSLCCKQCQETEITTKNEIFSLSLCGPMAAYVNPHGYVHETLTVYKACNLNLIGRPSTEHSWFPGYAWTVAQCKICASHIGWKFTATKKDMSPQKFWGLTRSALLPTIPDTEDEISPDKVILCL
T1 sequence (Q16531 whole entry partner): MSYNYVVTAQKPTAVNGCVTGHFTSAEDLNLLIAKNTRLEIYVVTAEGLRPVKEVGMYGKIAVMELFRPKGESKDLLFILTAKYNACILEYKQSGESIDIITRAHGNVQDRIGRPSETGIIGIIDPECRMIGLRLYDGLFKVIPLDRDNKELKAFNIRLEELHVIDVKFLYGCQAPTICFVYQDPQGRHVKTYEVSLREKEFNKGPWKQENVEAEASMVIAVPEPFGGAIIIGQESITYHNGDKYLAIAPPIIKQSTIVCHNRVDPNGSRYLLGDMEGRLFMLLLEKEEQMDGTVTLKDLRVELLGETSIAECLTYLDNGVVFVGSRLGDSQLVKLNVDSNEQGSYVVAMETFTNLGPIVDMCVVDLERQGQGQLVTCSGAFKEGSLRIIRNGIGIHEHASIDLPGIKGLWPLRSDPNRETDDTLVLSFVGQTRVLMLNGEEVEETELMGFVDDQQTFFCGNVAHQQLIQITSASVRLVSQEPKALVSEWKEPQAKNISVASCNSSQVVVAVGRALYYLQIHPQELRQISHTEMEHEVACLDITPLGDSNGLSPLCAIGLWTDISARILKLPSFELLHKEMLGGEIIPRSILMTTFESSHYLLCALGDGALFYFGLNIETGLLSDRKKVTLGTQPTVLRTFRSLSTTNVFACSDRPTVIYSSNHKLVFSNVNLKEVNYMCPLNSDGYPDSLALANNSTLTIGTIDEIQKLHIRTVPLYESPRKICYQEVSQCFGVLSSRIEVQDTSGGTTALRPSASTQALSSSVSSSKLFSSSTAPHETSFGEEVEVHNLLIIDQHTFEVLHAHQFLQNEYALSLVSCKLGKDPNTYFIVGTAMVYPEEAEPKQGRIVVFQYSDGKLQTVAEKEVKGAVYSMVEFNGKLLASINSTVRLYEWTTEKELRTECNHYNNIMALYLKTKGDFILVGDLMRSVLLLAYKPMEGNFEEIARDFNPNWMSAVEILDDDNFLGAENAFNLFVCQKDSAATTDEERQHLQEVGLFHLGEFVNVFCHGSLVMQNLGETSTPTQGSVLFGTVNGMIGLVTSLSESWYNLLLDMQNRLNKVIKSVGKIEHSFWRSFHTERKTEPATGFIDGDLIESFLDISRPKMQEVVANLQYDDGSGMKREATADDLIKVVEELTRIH

**Q.** For `CC[C@H](C(=O)N1CCCC[C@H]1C(=O)O[C@H](CCc1ccc(OC)c(OC)c1)c1cccc(OCC(=O)NCCCOCCOCCOCCCNC(=O)COc2cccc3c2C(=O)N(C2CCC(=O)NC2=O)C3=O)c1)c1cc(OC)c(OC)c(OC)c1` (stereo partly shown) [dFKBP7], which “Re-expression of CD19-CAR-dTAG protein after washout” value (CD19-CAR-dTAG; Jurkat T-cells, 250 nM for 4 hours, then washouts) is on record?
**A.** recovered

**Q.** And the “Degradation of CD19-CAR-dTAG, time dependence” value (CD19-CAR-dTAG; Jurkat T-cells, 250 nM, indicated time)?
**A.** time-dependent degradation of CD19-CAR-dTAG

**Q.** And the “Degradation of CD19-CAR-dTAG, dose dependence” value (CD19-CAR-dTAG; Jurkat T-cells, indicated dose, 4 hours)?
**A.** dose-dependent degradation of CD19-CAR-dTAG

**Q.** What about the “Rheostat chemical control of CD19-CAR-dTAG expression” value (CD19-CAR-dTAG; Jurkat cells, 250 nM at 0 and 8 hours, washed out at 4 and 12 hours) of the same compound?
**A.** exquisite chemical control of CD19-CAR-dTAG protein levels allowing for modulation within hours

**Q.** And the “Degradation of N-terminal dTAG-KRAS” value (FKBP*-KRASG12V)?
**A.** potent degradation

**Q.** And the p-AKT signal [1]?
**A.** downstream decrease in p-AKT signal

**Q.** What about the “FKBP* (Nluc) degradation, signal ratio Nluc/Fluc” value (FKBP* fused to Nluc) of the same compound?
**A.** effectively degrade FKBP* in a cereblon dependent manner
